# Test results taken from patent US20250289827A1, “MORPHIC FORMS OF A MUTANT BRAF DEGRADER AND METHODS OF MANUFACTURE THEREOF” (C4 THERAPEUTICS, INC., priority 2022, published 2025).
# Like-named read-outs stand apart in the source and are kept apart here.
# Assay: Approximate solubility at 25° C. and 50° C. (visual)
# Format: physicochemical
# Procedure: About 5 mg of Compound 1 Form A was weighed to a 2 mL glass vial. 20 μL aliquots of each solvent were added to dissolve the drug substance at 25° C. About 10 mg of Compound 1 Form A was weighed to a 2 mL glass vial. 20 μL aliquots of each solvent were added to dissolve the drug substance at 50° C. Vortex and sonication were applied to assist dissolution. Maximum volume of each solvent added was 1 mL. Approximate solubility was determined by visual observation.
# About 5 mg of Compound 1 Form B was weighed to a 2 mL glass vial. 20 μL aliquots of each solvent were added to dissolve the drug substance at 25° C. About 10 mg of Compound 1 Form B was weighed to a 2 mL glass vial. […] aliquots of each solvent were added to dissolve the drug substance at 50° C. Vortex and sonication were applied to assist dissolution. Maximum volume of each solvent added is 1 mL. Approximate solubility was determined by visual observation.
smiles,measurement,setting,value
CCN(C)S(=O)(=O)Nc1ccc(F)c(Oc2ccc3ncn([C@H]4COC5(CCN(C(=O)CC6(O)CCN(c7cc8c(cc7F)c(N7CCC(=O)NC7=O)nn8C)CC6)CC5)C4)c(=O)c3c2)c1C#N [Compound 1 Form B],solubility,"1,4-Dioxane, 25° C., listed as Form B",20~25 mg/mL
same,solubility,"1,4-Dioxane, 50° C., listed as Form B",28~40 mg/mL
same,solubility,"2-MeTHF, 25° C.",<5 mg/mL
same,solubility,"2-MeTHF, 50° C.",<5 mg/mL
same,solubility,"Acetone, 25° C., listed as Form B",<5 mg/mL
same,solubility,"Acetone, 50° C., listed as Form B",<5 mg/mL
same,solubility,"Acetonitrile, 25° C., listed as Form B",<5 mg/mL
same,solubility,"Acetonitrile, 50° C., listed as Form B",<5 mg/mL
same,solubility,"DCM, 25° C., listed as Form B",83~125 mg/mL
same,solubility,"DMSO, 25° C.",at least 250 mg/mL
same,solubility,"DMSO, 25° C., listed as Form B",>250 mg/mL
same,solubility,"Ethanol, 50° C.",<5 mg/mL
same,solubility,"Heptane, 50° C.",<5 mg/mL
same,solubility,"Isopropanol, 50° C.",<5 mg/mL
same,solubility,"MTBE, 50° C.",<5 mg/mL
same,solubility,"Methanol, 25° C.",<5 mg/mL
same,solubility,"Methanol, 50° C.",<5 mg/mL
same,solubility,"THF, 25° C., listed as Form B",10~13 mg/mL
same,solubility,"THF, 50° C., listed as Form B",16~20 mg/mL
same,solubility,"Toluene, 50° C.",<5 mg/mL
same,solubility,"Water, 50° C.",<5 mg/mL
CCN(C)S(=O)(=O)Nc1ccc(F)c(Oc2ccc3ncn([C@H]4COC5(CCN(C(=O)CC6(O)CCN(c7cc8c(cc7F)c(N7CCC(=O)NC7=O)nn8C)CC6)CC5)C4)c(=O)c3c2)c1C#N [Compound 1 Form A],solubility,"1,4-Dioxane, 25° C., listed as Form A",>250 mg/mL
same,solubility,"1,4-Dioxane, 50° C., listed as Form A",>500 mg/mL
same,solubility,"2-MeTHF, 25 °C, organic solvent or mixture, thermodynamic from solid, 2-MeTHF, 25° C., read-out: Solubility",5 to 7 mg/mL
same,solubility,"2-MeTHF, 50 °C, organic solvent or mixture, thermodynamic from solid, 2-MeTHF, 50° C., read-out: Solubility",< 10 mg/mL
same,solubility,"Acetone, 25° C., listed as Form A",13 to 17 mg/mL
same,solubility,"Acetone, 50° C., listed as Form A",25 to 29 mg/mL
same,solubility,"Acetonitrile, 25° C., listed as Form A",13 to 17 mg/mL
same,solubility,"Acetonitrile, 50° C., listed as Form A",25 to 33 mg/mL
same,solubility,"DCM, 25° C., listed as Form A",>250 mg/mL
same,solubility,"DMSO, 25 °C, organic solvent or mixture, thermodynamic from solid, DMSO, 25° C., read-out: Solubility",≥ 250 mg/mL
same,solubility,"DMSO, 50 °C, organic solvent or mixture, thermodynamic from solid, DMSO, 50° C., read-out: Solubility",> 500 mg/mL
same,solubility,"MTBE, 25 °C, organic solvent or mixture, thermodynamic from solid, MTBE, 25° C., read-out: Solubility",< 5 mg/mL
same,solubility,"MTBE, 50 °C, organic solvent or mixture, thermodynamic from solid, MTBE, 50° C., read-out: Solubility",< 10 mg/mL
same,solubility,"THF, 25° C., listed as Form A",>250 mg/mL
same,solubility,"THF, 50° C., listed as Form A",>500 mg/mL
same,solubility,"ethanol, 25 °C, organic solvent or mixture, thermodynamic from solid, Ethanol, 25° C., read-out: Solubility",< 5 mg/mL
same,solubility,"ethanol, 50 °C, organic solvent or mixture, thermodynamic from solid, Ethanol, 50° C., read-out: Solubility",< 10 mg/mL
same,solubility,"ethyl acetate, 25 °C, organic solvent or mixture, thermodynamic from solid, Ethyl acetate, 25° C., read-out: Solubility",< 5 mg/mL
same,solubility,"ethyl acetate, 50 °C, organic solvent or mixture, thermodynamic from solid, Ethyl acetate, 50° C., read-out: Solubility",< 10 mg/mL
same,solubility,"heptane, 25 °C, organic solvent or mixture, thermodynamic from solid, Heptane, 25° C., read-out: Solubility",< 5 mg/mL
same,solubility,"heptane, 50 °C, organic solvent or mixture, thermodynamic from solid, Heptane, 50° C., read-out: Solubility",< 10 mg/mL
same,solubility,"isopropanol, 25 °C, organic solvent or mixture, thermodynamic from solid, Isopropanol, 25° C., read-out: Solubility",< 5 mg/mL
same,solubility,"isopropanol, 50 °C, organic solvent or mixture, thermodynamic from solid, Isopropanol, 50° C., read-out: Solubility",< 10 mg/mL
same,solubility,"isopropyl acetate, 25 °C, organic solvent or mixture, thermodynamic from solid, Isopropyl acetate, 25° C., read-out: Solubility",< 5 mg/mL
same,solubility,"isopropyl acetate, 50 °C, organic solvent or mixture, thermodynamic from solid, Isopropyl acetate, 50° C., read-out: Solubility",< 10 mg/mL
same,solubility,"methanol, 25 °C, organic solvent or mixture, thermodynamic from solid, Methanol, 25° C., read-out: Solubility",~3 mg/mL
same,solubility,"methanol, 50 °C, organic solvent or mixture, thermodynamic from solid, Methanol, 50° C., read-out: Solubility",5 to 10 mg/mL
same,solubility,"methyl ethyl ketone, 25 °C, organic solvent or mixture, thermodynamic from solid, Methyl ethyl ketone, 25° C., read-out: Solubility",14 to 17 mg/mL
same,solubility,"methyl ethyl ketone, 50 °C, organic solvent or mixture, thermodynamic from solid, Methyl ethyl ketone, 50° C., read-out: Solubility",25 to 33 mg/mL
same,solubility,"toluene, 25 °C, organic solvent or mixture, thermodynamic from solid, Toluene, 25° C., read-out: Solubility",< 5 mg/mL
same,solubility,"toluene, 50 °C, organic solvent or mixture, thermodynamic from solid, Toluene, 50° C., read-out: Solubility",< 10 mg/mL
same,solubility,"water, 25 °C, water, thermodynamic from solid, Water, 25° C., read-out: Solubility",< 5 mg/mL
same,solubility,"water, 50 °C, water, thermodynamic from solid, Water, 50° C., read-out: Solubility",< 10 mg/mL
